{
  "source": "patent US20150189844A1",
  "about": "“METHOD FOR […] RECOMBINATION” (Biogemma, priority 2012, published 2015)",
  "key": {"I-SceI:GR [1]": {"system": "I-SceI:GR", "protocol": "(§1) Embryos isolated from selfed plants containing the TL and DL were placed onto a regeneration medium according to Ishida et al. (Ishida et al., 1996) lacking the kanamycin selective agent. For first experiment, LS-AS medium was complemented by 0, 30 or 50 μM dexamethasone and after one week transferred sequentially to LSD1.5, LSZ and ½LSF medium lacking dexamethasone and containing 50 mg·L−1 of kanamycin. For the second experiment, callus was developed for 3 days on LS-AS, 1 week on LSD1.5 and 3 weeks on LSZ medium. Then, callus was cultivated 1 week on LSZ medium complemented by 0 μM, 30 μM or 50 μM of dexamethasone and selected for 2 weeks on LSZ and then ½ LSF medium complemented by 50 mg·L−1 of kanamycin. GFP fluorescence of callus was visualized under the fluorescence stereomicroscope (Leica MZ16F) with a GFP2 filter.\nPlant regeneration from maize leaves has not been reported but calli derived from immature maize embryos are routinely used to regenerate plants (Lu et al., 1983). Embryos isolated from immature kernels of selfed F2 plants containing the TL and the DL were placed on callus induction medium with dexamethasone at 0 μM (control), 30 μM or 50 μM."}, "I-SceI:GR [2]": {"system": "I-SceI:GR", "details": "one week", "protocol": "as §1"}},
  "note": "Where two headings read alike, the source gives them in different places.",
  "data": [
    {"compound": "C[C@@H]1C[C@H]2[C@@H]3CCC4=CC(=O)C=C[C@]4(C)[C@@]3(F)[C@@H](O)C[C@]2(C)[C@@]1(O)C(=O)CO", "note": "[Dexamethasone, dexamethasone]", "values": [
      {"measurement": "GT Frequency, discovered kanamycin resistant events/extracted embryos", "setting": "I-SceI:GR [1]; TL1 × DL, 30 μM", "result": 0.39, "unit": "%"},
      {"measurement": "GT Frequency, discovered kanamycin resistant events/extracted embryos", "setting": "I-SceI:GR [1]; TL1 × DL, 50 μM", "result": 0.55, "unit": "%"},
      {"measurement": "Number of kanamycin resistant events", "setting": "I-SceI:GR [1]; TL1 × DL, 181 extracted embryos, 50 μM", "result": 1},
      {"measurement": "Number of kanamycin resistant events", "setting": "I-SceI:GR [1]; TL1 × DL, 255 extracted embryos, 30 μM in callus induction medium", "result": 1},
      {"measurement": "GT Frequency, discovered kanamycin resistant events/extracted embryos", "setting": "I-SceI:GR [1]; TL2 × DL, 30 μM", "result": 0.53, "unit": "%"},
      {"measurement": "GT Frequency, discovered kanamycin resistant events/extracted embryos", "setting": "I-SceI:GR [1]; TL2 × DL, 50 μM", "result": 0.27, "unit": "%"},
      {"measurement": "Number of kanamycin resistant events", "setting": "I-SceI:GR [1]; TL2 × DL, 374 extracted embryos, 50 μM", "result": 1},
      {"measurement": "Number of kanamycin resistant events", "setting": "I-SceI:GR [1]; TL2 × DL, 563 extracted embryos, 30 μM", "result": 3},
      {"measurement": "Mutations in TL I-SceI site", "setting": "I-SceI:GR [2]; TL1/DL calli, 30 μM", "result": 76},
      {"measurement": "Mutations in TL I-SceI site", "setting": "I-SceI:GR [2]; TL1/DL calli, 50 μM", "result": 76},
      {"measurement": "Mutations in TL I-SceI site", "setting": "I-SceI:GR [2]; TL2/DL calli, 30 μM", "result": 15},
      {"measurement": "Mutations in TL I-SceI site", "setting": "I-SceI:GR [2]; TL2/DL calli, 50 μM", "result": 36}
    ]}
  ]
}
